Experiments:
[1] = test system: IL-6; assay: IL-6 cytokine secretion by TNFα-stimulated primary human hepatic stellate cells (ELISA); format: cell-based; conditions: for IL-6 cytokine secretion, per-cell normalized, fold change from plasma amino acid background: primary human hepatic stellate cells, two donors, TNFα 3 ng/mL, 12 hours
Method: Primary human hepatic stellate cells were obtained from Samsara Sciences and grown in Complete HSC Medium to […] confluence in T75 or T150 flasks below passage 10 were seeded into 96-well plates and incubated for 6 hours at 37° C., 5% CO2 in a humidified incubator. After 6 hours, plates were removed from the incubator washed with DPBS and pretreated (±single amino acid dropout, ±supplemental amino acid dose; see experiment for medium composition) overnight, ˜14-15 hours. After overnight pretreatment, the medium was removed from the cells, and the same pretreatment medium, now supplemented with 3 ng/mL TNFα was applied. Plates were incubated for 12 hours at 37° C., 5% CO2. After 12 hour stimulus with TNFα, supernatant was removed and frozen at −80° C. in two separate aliquots. Plates were washed and incubated with CCK-8 viability reagent (Dojindo) for 1 hour. Viability was measured on the Synergy plate reader. Immediately, the medium was removed and the plates were fixed for immunofluorescence staining.
Human CCL2/MCP1 and Human IL-6 were measured by ELISA (Human […] DuoSet ELISA, R&D Systems; Human IL-6 DuoSet ELISA, R&D Systems) at ⅕ and 1/20 dilution in 1× Reagent Diluent (Reagent Ancillary Kit 2, R&D Systems). Data were normalized to the specific per well cell density determined by Hoechst stained nuclei count.
Tables 39-42 show per-cell normalized IL-6 cytokine secretion in primary human hepatic stellate cells from two donors as a fold change from the plasma amino acid background. Statistical significance calculated by one-way ANOVA with Dunnett's multiple comparison test within each treatment group.

[2] = test system: CCL18; assay: IL-4 induced CCL18 secretion in primary human monocyte-derived macrophages (ELISA); format: cell-based; conditions: for Donor 1 CCL18 Measurements Mean / Donor 2 CCL18 Measurements Mean: relative to vehicle control; for CCL18 Measurements: Mean (fold change relative to vehicle control): IL-4 induced; for IL-4 induced CCL18 secretion (fold change relative to vehicle control): macrophages
Method: Lymphocytes were purified from unpurified buffy coats (Research Blood Components) using Lymphocyte Separation Medium (Corning). After centrifugation, the PBMC layer was extracted and rinsed several times using Dulbecco's phosphate-buffered saline (DPBS; Gibco). After straining PBMCs through a 70 uM cell strainer, cells were resuspended and counted using a Cellometer K2 automated cell counter.
CD14+ cells were selected using EasySep™ Human CD14 Positive Selection Kit II ([…] Technologies) according to manufacturer-supplied protocols. Following isolation CD14+ cells were seeded into 10 cm tissue culture plates and differentiated into macrophages using M-CSF (Peprotech).
On day 0, primary human PBMC derived macrophages were seeded in Dulbecco's Modified Eagle Medium (DMEM) (Gibco) supplemented with penicillin-streptomycin (Hyclone) and 10% heat inactivated fetal bovine serum (HI-FBS) (Atlanta Bio) into 96-well microplates (ThermoFisher) and incubated overnight at 37° C., 5% CO2. On day 1, cells were washed once with DPBS and then treated with: • a. Amino acid free DMEM (US Biologicals) containing a defined custom amino acid concentration based on the mean physiological concentrations in blood based on values published in the Human Metabolome Database (HMDB), with 6 mM glucose, 1 mM sodium pyruvate, 10 mM HEPES, penicillin-streptomycin; or • b. The same medium described above with one amino acid or amino acid combination at various concentrations
On day 2, cells were treated with the same mediums described above supplemented with recombinant human interleukin-4 (IL-4; Peprotech). Control wells were treated with tofacitinib (Tocris) and IL-4, PBS with IL-4, or phosphate buffered saline (PBS) alone.
On day 3, the supernatant was collected and immediately frozen in −80° C. freezer. Cells were washed once with DPBS and viability was assessed using the WST-8 Cell Proliferation Cytotoxicity Assay (Dojindo) according to manufacturer-supplied protocol. Following the assay, cells were washed twice with PBS and fixed with 4% paraformaldehyde. Protein levels in supernatant samples were analyzed by ELISA for CCL18 using commercially available kits (R&D Systems) according to manufacturer-supplied protocols.

CC(C)C[C@H](N)C(=O)O [Leucine, L-Leucine]
Fold Change IL-6 Secretion Normalized Per Cell ([1]; donor 1, Conc. 153 μM (plasma background, reference)): 1.0000 | Fold Change IL-6 Secretion Normalized Per Cell ([1]; donor 2, Conc. 153 μM (plasma background, reference)): 1.0000 | IL-6 cytokine secretion, per-cell normalized, fold change from plasma amino acid background [1]: no significant effect | Donor 1 CCL18 Measurements Mean ([2]; Donor 1, Conc. 153 μM): 1.124 fold change | Donor 1 CCL18 Measurements Mean ([2]; Donor 1, Conc. 3054 μM): 1.302 fold change | Donor 1 CCL18 Measurements Mean ([2]; Donor 1, Conc. 7635 μM): 1.247 fold change | Donor 1 CCL18 Measurements Mean ([2]; Donor 1, Conc. 15270 μM): 1.227 fold change | Donor 2 CCL18 Measurements Mean ([2]; Donor 2, Conc. 153 μM): 1.488 fold change | Donor 2 CCL18 Measurements Mean ([2]; Donor 2, Conc. 3054 μM): 1.646 fold change | Donor 2 CCL18 Measurements Mean ([2]; Donor 2, Conc. 7635 μM): 1.825 fold change | Donor 2 CCL18 Measurements Mean ([2]; Donor 2, Conc. 15270 μM): 1.712 fold change | CCL18 Measurements: Mean (fold change relative to vehicle control) ([2]; Donor 3, Conc. 153 μM): 1.242 fold change | CCL18 Measurements: Mean (fold change relative to vehicle control) ([2]; Donor 3, Conc. 3054 μM): 1.502 fold change | CCL18 Measurements: Mean (fold change relative to vehicle control) ([2]; Donor 3, Conc. 7635 μM): 1.558 fold change | CCL18 Measurements: Mean (fold change relative to vehicle control) ([2]; Donor 3, Conc. 15270 μM): 1.193 fold change | IL-4 induced CCL18 secretion (fold change relative to vehicle control) ([2]; Donor 2): significantly increased | IL-4 induced CCL18 secretion (fold change relative to vehicle control) ([2]; Donor 3): significantly increased

NC(=O)CC[C@H](N)C(=O)O [Glutamine, L-Glutamine]
Fold Change IL-6 Secretion Normalized Per Cell ([1]; donor 1, Conc. 562 μM (plasma background, reference)): 1.0000 | Fold Change IL-6 Secretion Normalized Per Cell ([1]; donor 2, Conc. 562 μM (plasma background, reference)): 1.0000 | Fold Change IL-6 Secretion Normalized Per Cell ([1]; donor 2, Conc. 3747 μM): 0.7100 | IL-6 cytokine secretion, per-cell normalized, fold change from plasma amino acid background [1]: significantly reduced | Donor 1 CCL18 Measurements Mean ([2]; Donor 1, Conc. 749 μM): 1.382 fold change | Donor 1 CCL18 Measurements Mean ([2]; Donor 1, Conc. 3747 μM): 1.492 fold change | Donor 1 CCL18 Measurements Mean ([2]; Donor 1, Conc. 11242 μM): 1.645 fold change | Donor 1 CCL18 Measurements Mean ([2]; Donor 1, Conc. 22484 μM): 1.992 fold change | Donor 2 CCL18 Measurements Mean ([2]; Donor 2, Conc. 749 μM): 1.4 fold change | Donor 2 CCL18 Measurements Mean ([2]; Donor 2, Conc. 3747 μM): 1.559 fold change | Donor 2 CCL18 Measurements Mean ([2]; Donor 2, Conc. 11242 μM): 1.857 fold change | Donor 2 CCL18 Measurements Mean ([2]; Donor 2, Conc. 22484 μM): 2.219 fold change | CCL18 Measurements: Mean (fold change relative to vehicle control) ([2]; Donor 3, Conc. 749 μM): 1.56 fold change | CCL18 Measurements: Mean (fold change relative to vehicle control) ([2]; Donor 3, Conc. 3747 μM): 1.606 fold change | CCL18 Measurements: Mean (fold change relative to vehicle control) ([2]; Donor 3, Conc. 11242 μM): 2.428 fold change | CCL18 Measurements: Mean (fold change relative to vehicle control) ([2]; Donor 3, Conc. 22484 μM): 2.33 fold change | IL-4 induced CCL18 secretion (fold change relative to vehicle control) ([2]; Donor 1): significantly increased | IL-4 induced CCL18 secretion (fold change relative to vehicle control) ([2]; Donor 2): significantly increased | IL-4 induced CCL18 secretion (fold change relative to vehicle control) ([2]; Donor 3): significantly increased
